Assay results reported in ChEMBL document CHEMBL1201862, “PubChem BioAssay data set” (2004).
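Results reflect a 48-hour exposure of cells in 96-well plates to compound at five concentrations. GI50: concentration for 50% inhibition of growth.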 Active and inactive are the calls of the source. No stated cut-off is given here; in the data, active = GI50 up to about 1.1 µM and inactive = higher.

How the values were obtained:
Assay in all cases: NCI tumour cell line growth inhibition, 48 h
EKVX = test system: EKVX
NCI/ADR-RES = test system: NCI/ADR-RES
IGROV-1 = test system: IGROV-1
T47D = test system: T47D
MCF7 = test system: MCF7
SK-MEL-28 = test system: SK-MEL-28
BT-549 = test system: BT-549
OVCAR-8 = test system: OVCAR-8
A549 = test system: A549
ACHN = test system: ACHN
NCI-H522 = test system: NCI-H522
NCI-H23 = test system: NCI-H23
HOP-62 = test system: HOP-62
Malme-3M = test system: Malme-3M
SNB-75 = test system: SNB-75
UACC-62 = test system: UACC-62
MOLT-4 = test system: MOLT-4
UACC-257 = test system: UACC-257
LOX IMVI = test system: LOX IMVI

Structure (SMILES)	GI50 (EKVX)	GI50 (NCI/ADR-RES)	GI50 (IGROV-1)	GI50 (T47D)	GI50 (MCF7)	GI50 (SK-MEL-28)	GI50 (BT-549)	GI50 (OVCAR-8)	GI50 (A549)	GI50 (ACHN)	GI50 (NCI-H522)	GI50 (NCI-H23)	GI50 (HOP-62)	GI50 (Malme-3M)	GI50 (SNB-75)	GI50 (UACC-62)	GI50 (MOLT-4)	GI50 (UACC-257)	GI50 (LOX IMVI)
Cc1cc(C(=O)CCCCOc2ccc(C3=NCCO3)cc2)c(C)n1C	35.8 µM (inactive)	26.7 µM (inactive)	37.2 µM (inactive)	23 µM (inactive)	33.3 µM (inactive)	25.4 µM (inactive)	33.3 µM (inactive)	33.2 µM (inactive)	> 10 µM (inactive)	35.4 µM (inactive)	50.7 µM (inactive)	41.1 µM (inactive)	52.7 µM (inactive)	35.3 µM (inactive)	21 µM (inactive)	> 10 µM (inactive)	14.7 µM (inactive)	3.98 µM (inactive)	
NS(=O)(=O)c1ccc(Nc2c3ccccc3nc3c(C(=O)NCCO)cccc23)cc1	0.251 µM (active)	0.408 µM (active)	0.115 µM (active)	0.03 µM (active)	0.0373 µM (active)	0.167 µM (active)	0.145 µM (active)	0.173 µM (active)	0.178 µM (active)	0.252 µM (active)	0.127 µM (active)	0.132 µM (active)	0.167 µM (active)	0.13 µM (active)		0.135 µM (active)	0.0241 µM (active)	0.17 µM (active)	0.124 µM (active)
N#CC12C(=O)NC(=O)C1(C#N)C1C=CC2CC1 (configuration not stated)	> 100 µM (inactive)	> 100 µM (inactive)		> 100 µM (inactive)	> 100 µM (inactive)	> 100 µM (inactive)	> 100 µM (inactive)	> 100 µM (inactive)	> 100 µM (inactive)	> 100 µM (inactive)	> 100 µM (inactive)	> 100 µM (inactive)		> 100 µM (inactive)	> 100 µM (inactive)	> 100 µM (inactive)	> 100 µM (inactive)	> 100 µM (inactive)	> 100 µM (inactive)
CCOC(=O)c1nc2ccc(C(F)(F)F)cc2nc1Oc1cc(OC)cc(OC)c1	> 100 µM (inactive)	> 100 µM (inactive)	41.7 µM (inactive)	> 100 µM (inactive)	> 100 µM (inactive)	> 100 µM (inactive)	> 100 µM (inactive)	> 100 µM (inactive)	> 100 µM (inactive)	> 100 µM (inactive)			65.6 µM (inactive)	35.8 µM (inactive)	21.4 µM (inactive)	> 100 µM (inactive)	> 100 µM (inactive)	> 100 µM (inactive)	> 100 µM (inactive)
COC(=O)/C=C1/CCC(C)(C(=O)NS(=O)(=O)c2ccc(C)cc2)C1(C)C (configuration not stated)	> 100 µM (inactive)	> 100 µM (inactive)	> 100 µM (inactive)	> 100 µM (inactive)	> 100 µM (inactive)	> 100 µM (inactive)	> 100 µM (inactive)	> 100 µM (inactive)	> 100 µM (inactive)	> 100 µM (inactive)	> 100 µM (inactive)	> 100 µM (inactive)	> 100 µM (inactive)	> 100 µM (inactive)		> 100 µM (inactive)	> 100 µM (inactive)	> 100 µM (inactive)	> 100 µM (inactive)
CC(C(N)C(=O)NC(C(=O)O)C1OC(n2ccc(=O)[nH]c2=O)C(O)C1O)C(O)c1ccc(O)cn1 (configuration not stated)	> 100 µM (inactive)	> 100 µM (inactive)	> 100 µM (inactive)	> 100 µM (inactive)	> 100 µM (inactive)	> 100 µM (inactive)	> 100 µM (inactive)	> 100 µM (inactive)	> 100 µM (inactive)	> 100 µM (inactive)	> 100 µM (inactive)	> 100 µM (inactive)	> 100 µM (inactive)		> 100 µM (inactive)	> 100 µM (inactive)	> 100 µM (inactive)	> 100 µM (inactive)	> 100 µM (inactive)
CC(=O)Oc1ccc2c(c1)[nH]c1c3ccc(OC(C)=O)cc3oc(=O)c21	34.7 µM (inactive)	> 100 µM (inactive)	39 µM (inactive)	20.4 µM (inactive)	24.9 µM (inactive)	38 µM (inactive)	23.9 µM (inactive)	35.4 µM (inactive)	56.9 µM (inactive)	27 µM (inactive)	25.5 µM (inactive)	36.1 µM (inactive)	29.3 µM (inactive)	32.8 µM (inactive)	51.6 µM (inactive)	28.1 µM (inactive)	14.2 µM (inactive)	43.2 µM (inactive)	
COc1ccc(/C=C2\CN(C)CC3C2=NC(=S)NC3c2ccc(OC)cc2)cc1 (configuration not stated)	11.5 µM (inactive)	2.55 µM (inactive)	2.98 µM (inactive)	4.11 µM (inactive)	2.82 µM (inactive)	> 66.7 µM (inactive)	7.6 µM (inactive)	7.8 µM (inactive)	4 µM (inactive)	5.73 µM (inactive)	1.63 µM (inactive)	7.96 µM (inactive)	6.46 µM (inactive)	2.99 µM (inactive)		4.58 µM (inactive)	2.9 µM (inactive)	4.82 µM (inactive)	4.76 µM (inactive)
CCOC(=O)CN1CCNCCN(CC(=O)OCC)CCNCC1	> 100 µM (inactive)	> 100 µM (inactive)	> 100 µM (inactive)	> 100 µM (inactive)	> 100 µM (inactive)	> 100 µM (inactive)	> 100 µM (inactive)	> 100 µM (inactive)	> 100 µM (inactive)	> 100 µM (inactive)	> 100 µM (inactive)		> 100 µM (inactive)		> 100 µM (inactive)	> 100 µM (inactive)	> 100 µM (inactive)	> 100 µM (inactive)	> 100 µM (inactive)
O=C1c2cc([N+](=O)[O-])ccc2NC2C(O)c3ccccc3N12 (configuration not stated)	0.619 µM (active)	23.5 µM (inactive)	24.9 µM (inactive)	14.2 µM (inactive)	17.3 µM (inactive)		22.8 µM (inactive)	23.3 µM (inactive)	35.7 µM (inactive)	24.7 µM (inactive)	16.2 µM (inactive)	24.3 µM (inactive)	30.1 µM (inactive)		20.2 µM (inactive)	3.45 µM (inactive)	19.7 µM (inactive)	16 µM (inactive)	43.8 µM (inactive)
COc1ccc(N2CCOCC2)cc1	> 100 µM (inactive)	> 100 µM (inactive)	> 100 µM (inactive)	> 100 µM (inactive)	> 100 µM (inactive)	> 100 µM (inactive)	> 100 µM (inactive)	> 100 µM (inactive)	> 100 µM (inactive)	> 100 µM (inactive)	> 100 µM (inactive)	> 100 µM (inactive)	> 100 µM (inactive)	> 100 µM (inactive)	> 100 µM (inactive)	> 100 µM (inactive)	> 100 µM (inactive)	> 100 µM (inactive)	
CC(C)(C)c1ccc2c(c1)C#Cc1cc(C(C)(C)C)ccc1OCCCO2	> 100 µM (inactive)	> 100 µM (inactive)	> 100 µM (inactive)	> 100 µM (inactive)	> 100 µM (inactive)	> 100 µM (inactive)	> 100 µM (inactive)	> 100 µM (inactive)	> 100 µM (inactive)	> 100 µM (inactive)	> 100 µM (inactive)	> 100 µM (inactive)	> 100 µM (inactive)	> 100 µM (inactive)		> 100 µM (inactive)	> 100 µM (inactive)	> 100 µM (inactive)	> 100 µM (inactive)
C#Cc1cc(Br)c(OC(=O)C(C)(C)C)c(-c2cc(C#C)cc(Br)c2OC(=O)C(C)(C)C)c1	31.2 µM (inactive)	> 100 µM (inactive)	76.9 µM (inactive)	18.3 µM (inactive)	26.7 µM (inactive)	61.2 µM (inactive)	> 100 µM (inactive)	65.3 µM (inactive)	31.8 µM (inactive)	21.4 µM (inactive)	32.5 µM (inactive)	30.5 µM (inactive)	55.6 µM (inactive)	> 100 µM (inactive)		81.5 µM (inactive)	23 µM (inactive)	36.1 µM (inactive)	19.7 µM (inactive)
O=c1[nH][nH]c(=O)n1/N=C/c1ccccc1	> 100 µM (inactive)	> 100 µM (inactive)	> 100 µM (inactive)	> 100 µM (inactive)	> 100 µM (inactive)	> 100 µM (inactive)	> 100 µM (inactive)	> 100 µM (inactive)	> 100 µM (inactive)	> 100 µM (inactive)		> 100 µM (inactive)	> 100 µM (inactive)		> 100 µM (inactive)	> 100 µM (inactive)	> 100 µM (inactive)	> 100 µM (inactive)	> 100 µM (inactive)
O=C1/C(=C/c2ccccc2[N+](=O)[O-])N=C(c2ccccc2)N1c1nc2ccccc2s1	29 µM (inactive)	16.6 µM (inactive)	11.9 µM (inactive)	21.7 µM (inactive)	13 µM (inactive)	31.3 µM (inactive)	20 µM (inactive)	17.4 µM (inactive)	34.2 µM (inactive)	23.2 µM (inactive)	18.6 µM (inactive)	17.4 µM (inactive)	27.1 µM (inactive)		27.3 µM (inactive)		5.92 µM (inactive)	65 µM (inactive)	22 µM (inactive)
OC1CCCCCCCCCCC1[S+]1CCCC1.O[B-](F)(F)F (configuration not stated)	> 100 µM (inactive)	> 100 µM (inactive)	> 100 µM (inactive)	> 100 µM (inactive)	> 100 µM (inactive)	68.4 µM (inactive)	> 100 µM (inactive)	> 100 µM (inactive)	96.6 µM (inactive)	> 100 µM (inactive)	> 100 µM (inactive)	72.6 µM (inactive)	> 100 µM (inactive)	42 µM (inactive)		> 100 µM (inactive)	> 100 µM (inactive)	38.8 µM (inactive)	> 100 µM (inactive)
